Results on three compounds are retold here after US20040024043A1, “Method for treating cognitive disorders” (priority 2002, published 2004).

SMILES strings stand for the structures. pIC50: −log10 of the molar value. Entries after “also recorded” stand apart in the source; their conditions may differ. Some results are limits rather than exact numbers.

Data set [1] relates to Aβ protein levels in SK-N-SH cells. As to the kind of experiment: Total Aβ assay (ELISA) in neuroblastoma cell cultures. Conditions: especially after 10 hours. Type of data set: cell-based. Here is the method:
(§1) The (+) enantiomer of formula I prepared in Example 2 was tested against its phenserine with respect to controlling β-APP levels in and the resulting toxic amyloid protein (Aβ protein) derived from the β-APP-protein by the procedure disclosed in the Shaw et al. Proc. Nat. Acad. Sci. USA (2001), 98 (13), 7605-7610. Pages […] except that the test given below included (+) enantiomer of phenserine as well as phenserine itself so that phenserine and its (+) enantiomer were tested side by side for their effect in reducing the β-APP and Aβ-proteins. The methodology of Shaw et al for carrying out these tests is summarized as follows:
(§2) Drug treatment: SK-N-SH neuroblastoma cells were cultured on 60 mm dishes at a concentration of 3×10^6 cells, and SH-SY-5Y neuroblastoma cells were plated in 100 mm dishes at a concentration of 3×10^5 cells. The cells were allowed to grow in complete media (10% FBS, 2 mM glutamine in DMEM) for 3 to 4 days until they reached 70% confluence. To start the experiment, spent media were removed and replaced with fresh media (DMEM+0.5% FBS) containing 0, 5 or 50 μM of either (−)- or (+)-phenserine, and cells were incubated at 37 C, 5% CO2 for the specific times indicated.
Total Aβ Assay: Total Aβ peptide levels in SH-SY-5Y and SK-N-SH cultured samples were assayed by a sensitive ELISA (Suzuki et al., 1994). For total Aβ measurements, the a sandwich immunoassay with rabbit polyclonal antibody to residues 1-40 residues of Aβ as a capture antibody for all species of Aβ peptide Aβ1-40 and Aβ1-42 and the monoclonal antibody to 17-25 residues of Aβ was used to detect Aβ peptide levels, and the values were expressed as the mean of six independent assays.

The subject of data set [2] is βAPP levels in SK-N-SH cells. The data set can be described thus: βAPP levels by Western blot in neuroblastoma cells. Type of data set: cell-based. Conditions: 0.5 μM to 50 μM, various time intervals up to 16 hours. Here is the method:
as §1, §2
Lysate preparation: At each time point, the spent medium was collected and stored at −70 C for later analysis of secretory βAPP levels. Cell lysates were prepared as reported previously (Lahiri et al., 1997 and 1998). Protein levels of the supernatant were analyzed by the Bradford protein assay (BioRad, Mellville, N.Y.).
Western Blot: Fifteen μg of protein from each sample was laded onto a 10% NuPAGE Bis-Tris gel in 1× NuPAGE MOPS SDS running buffer (NOVEX, San Diego, Calif.) and the proteins separated at 200 V for 45 min. The gels then were transferred onto nitrocellulose at 25 V for 1.5 h. […] Equivalent loading of samples was determined by Ponceau S staining (Sigma, St. Louis, Mo.). Densimetric quantification of the chemiluminesence of blots was undertaken by using a […] and NIH-IMAGE (version 4.1).
For orientation: A western blot detects proteins with antibodies after separation by electrophoresis.

Data set [3] is described as follows: In vivo studies: cholinergic side effects after i.p. administration. Conditions: rodents. The procedure:
This is a classical central (i.e., brain) cholinergic over-stimulation (overdrive) effect. Such a tremor persisted for approximately 1 hour.

The target of data set [4] is T1, acetylcholinesterase (Homo sapiens, UniProt P22303). Particulars: compared with negative enantiomer phenserine; Pei, Greig et al. 1995; cited from earlier work.
Target sequence in this assay (P22303 32-614): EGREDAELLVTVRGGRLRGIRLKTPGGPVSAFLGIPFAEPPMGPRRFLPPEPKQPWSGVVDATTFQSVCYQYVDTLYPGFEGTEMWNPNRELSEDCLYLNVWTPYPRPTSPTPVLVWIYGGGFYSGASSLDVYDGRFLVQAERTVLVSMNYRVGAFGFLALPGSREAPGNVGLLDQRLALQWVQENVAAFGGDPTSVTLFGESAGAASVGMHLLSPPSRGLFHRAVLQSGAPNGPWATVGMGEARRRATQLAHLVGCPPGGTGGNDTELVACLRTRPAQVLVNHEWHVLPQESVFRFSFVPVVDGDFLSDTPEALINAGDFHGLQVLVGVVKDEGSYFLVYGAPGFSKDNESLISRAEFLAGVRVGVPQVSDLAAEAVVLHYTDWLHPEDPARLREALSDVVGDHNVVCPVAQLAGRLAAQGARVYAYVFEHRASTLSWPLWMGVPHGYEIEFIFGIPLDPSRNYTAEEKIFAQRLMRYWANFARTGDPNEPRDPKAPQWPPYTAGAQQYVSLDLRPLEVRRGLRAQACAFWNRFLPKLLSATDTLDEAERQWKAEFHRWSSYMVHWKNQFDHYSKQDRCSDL
The target of data set [5] is T1, acetylcholinesterase. Particulars: as stated in Shaw et al., PNAS 2001; read-out: concentration of compound required to inhibit 50% acetylcholinesterase activity; cited from earlier work.
Target sequence in this assay (P22303 32-614, species assumed): as the sequence (P22303 32-614) above
A short description of data set [6]: Randomized, double-blind, placebo-controlled 12-week efficacy study (NPI, CGIC, ADAS-cog, MMSE, CANTAB, ADCS-ADL). The data set is classed as in vivo, patients. Particulars: 50 mg BID 2 weeks then 100 mg BID 10 weeks. The source says:
A randomized, double-blind, placebo-controlled study is done to measure the efficacy of the (+) phenserine tartrate or formation as in Example 6 in given daily over twelve (12) weeks, in 60 patients diagnosed as having symptoms similar to those caused by Alzheimer's disease (PAD). In this study there was a total of 60 eligible patients with PAD whose primary language is English, and the patients constituted male and female patients between the ages of 50 and 85 years.
Forty patients will receive two weeks of PT and a 50 mg BID dose level, at which time their dose will be escalated to 100 mg BID, where it will remain for the final ten (10) weeks. Concurrently, twenty patients assigned to placebo medication receive matched placebo capsules for the entire 12 week duration of the study. A sufficient number of potential patients are screened to ensure enrollment of 60 eligible cases.
All study participants were evaluated prior to the study (First Level) and periodically throughout using the following standard efficacy tests;
NPI (Neuropsychiatric Inventory,
CGIC (Clinician's Global Impression of Change)
ADAS-cog (Alzheimer's Disease Assessment Scale—cognitive subscale)
MMSE (Mini-Mental State Exam)
CANTAB (Cambridge Neuropsychological Test Automated Battery—
ADCS-ADL (Activities of Daily Living)

On to `CN1CC[C@@]2(C)c3cc(OC(=O)Nc4ccccc4)ccc3N(C)C12` (single isomer, unassigned; (-)) [(−)-phenserine, (−) N-(−)-N phenyl canbamoyleseroline], for which the “levels of Aβ protein compared to control” value in data set [1] (FIGS. 2 and 3) is recorded as “reduced Aβ protein levels; also recorded: substantially reduced”. In data set [2] (FIGS. 1 and 3), the “βAPP levels compared to control” value was “reduces secreted and cellular βAPP levels in a concentration dependent manner; also recorded: decreased the βAPP levels”. Moreover, the persistence of tremor result in data set [3] (5 mg/kg) is reported as “approximately 1 hour”. Besides, the symptoms observed entry in data set [3] (5 mg/kg (1 ml/kg in isotonic saline)) was “fine tremor”; in data set [3] (7.5 mg/kg) it was “Tremor, together with symptoms of peripheral over-stimulation (specifically, lacrimation and salivation)”; in data set [3] (20 mg/kg), “incapacitated by severe tremor and peripheral side effects”. Moreover, in data set [3] (20 mg/kg), the “animals killed when moribund, of 5 treated animals” value amounted to 2.

Consider `CN1CC[C@]2(C)c3cc(OC(=O)Nc4ccccc4)ccc3N(C)C12` (single isomer, unassigned; (+)) [(+)-phenserine, (+) 9-N-phenylcarbinol esroline], for which, in data set [4], the “activity as an inhibitor of human acetylcholinesterase” value is on record as “far less active”. For the same compound, the “levels of Aβ protein compared to control” value in data set [1] (FIGS. 2 and 3) is “effective in reducing”; in data set [1] (FIGS. 2 and 3, listed as positive isomer of phenserine), “reduces the production”. Further, the “βAPP levels compared to control” value in data set [2] (FIGS. 1 and 3) is “effective in reducing”; in data set [2] (FIGS. 1 and 3, listed as positive isomer of phenserine), “reduces the production”. Besides, the symptoms observed result in data set [3] (20 mg/kg) is given as “entirely without symptoms”. In data set [5], the pIC50 is less than 4.60.

Regarding `CN1CC[C@]2(C)c3cc(OC(=O)Nc4ccccc4)ccc3N(C)[C@H]12.O=C(O)C(O)C(O)C(=O)O` (single isomer, unassigned) [(+) phenserine tartrate, tartaric acid salt of the +enantiomer of N-phenyl carbanoyl eseroline], the “level in the efficacy tests at end of twelve weeks versus First Level prior to treatment” value in data set [6] (patients with symptoms similar to Alzheimer's disease, oral capsules) is reported as “maintain a level at least as great as the First Level”. The “patients with an improvement over First Level at end of twelve-week period” value in data set [6] (treated group) is “about 30%”.
